We go through 32 molecules from US8871756B2 (Hoffmann-La Roche Inc., priority 2011, dated 2014).

The experiment concerns RSV Long strain. Description: Viral cytopathic effect (CPE) assay, anti-RSV activity. It counts as cell-based, Respiratory Syncytial Virus. The conditions noted are these: RSV Long strain (ATCC), cell viability after 6 days, Cell Counting kit-8. The essentials: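 Cells (6×10^3/well, DMEM with 10% FBS) were infected next day with RSV Long strain, at a dose giving approximately 80–90% CPE, alongside serial half-log compound dilutions. Viability was read after 6 days by CCK-8 absorbance at 450 nm (reference 630 nm), and EC50 was derived from it.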

Where [1] appears, read: human respiratory syncytial virus, 144 h.

For orientation: EC50 means the concentration giving half of the maximal effect. For `Cc1ccc2nc(N3CCS(=O)(=O)c4ccccc4C3)cc(NC[C@@H]3COC(N)=N3)c2c1` [Example 38-3, N-{[(4R)-2-Amino-4,5-dihydro-1,3-oxazol-4-yl]methyl}-2-(1,1-dioxido-2,3-dihydro-1,4-benzothiazepin-4(5H)-yl)-6-methylquinolin-4-amine], the midpoint of the response under setting [1], the EC50, lay at 0.074 µM. Still for that read-out and setting: the result for `[2H]C([2H])([2H])c1ccc2nc(N3CCS(=O)(=O)c4ccccc4C3)cc(NCC3(CN)COC3)c2c1` [Example 3-65, N-{[3-(Aminomethyl)oxetan-3-yl]methyl}-2-(1,1-dioxido-2,3-dihydro-1,4-benzothiazepin-4(5H)-yl)-6-trideuteriomethylquinolin-4-amine] reads 0.002 µM.

Under setting [1], `COc1ccc2c(c1)CN(c1cc(NCC3(CN)COC3)c3cc(C)ccc3n1)CCS2(=O)=O` [Example 3-5, N-{[3-(Aminomethyl)oxetan-3-yl]methyl}-2-(7-methoxy-1,1-dioxido-2,3-dihydro-1,4-benzothiazepin-4(5H)-yl)-6-methylquinolin-4-amine] displayed an EC50 of 0.002 µM. In turn, `Cc1cccc2c(NCCCCCCCCCN)cc(N3CCS(=O)(=O)c4ccccc4C3)nc12` [Example 12-3, N-[2-(1,1-Dioxido-2,3-dihydro-1,4-benzothiazepin-4(5H)-yl)-8-methylquinolin-4-yl]nonane-1,9-diamine] showed an EC50 under setting [1] of 6.26 µM. As to `Cc1ccc2nc(N3CCS(=O)(=O)c4ccccc4C3)cc(Nc3ccon3)c2c1` [Example 3-64, 2-(1,1-Dioxido-2,3-dihydro-1,4-benzothiazepin-4(5H)-yl)-6-methyl-N-(1,2-oxazol-3-yl)quinolin-4-amine], under setting [1], the EC50 stood at 0.874 µM. The molecule `Cc1ccc2nc(N3CCS(=O)(=O)c4ccccc4C3)cc(CC[C@@H]3COC(N)=N3)c2c1` [Example 94, (4R)-4-{2-[2-(1,1-Dioxido-2,3-dihydro-1,4-benzothiazepin-4(5H)-yl)-6-methylquinolin-4-yl]ethyl}-4,5-dihydro-1,3-oxazol-2-amine] displayed an EC50 under setting [1] of 6.53 µM. The same measure, in the same setting: the result for `C#Cc1ccc2nc(N3CCS(=O)(=O)c4ccccc4C3)cc(NCCCN)c2c1` [Example 54, N-[2-(1,1-Dioxido-2,3-dihydro-1,4-benzothiazepin-4(5H)-yl)-6-ethynylquinolin-4-yl]propane-1,3-diamine] reads 4.8 µM; that for `Cc1ccc2nc(N3CCS(=O)(=O)c4ccccc4C3)cc(NCCc3nn[nH]n3)c2c1` [Example 84, 2-(1,1-Dioxido-2,3-dihydro-1,4-benzothiazepin-4(5H)-yl)-6-methyl-N-[2-(1H-tetrazol-5-yl)ethyl]quinolin-4-amine], 2.96 µM. On the same count and under the same terms, the result for `Cc1ccc2nc(N3CCS(=O)(=O)c4ccccc4C3)cc(NCC3CCN3)c2c1` (centres unmarked) [Example 21-3, N-(Azetidin-2-ylmethyl)-2-(1,1-dioxido-2,3-dihydro-1,4-benzothiazepin-4(5H)-yl)-6-methylquinolin-4-amine] reads 0.015 µM; that for `Cc1ccc2nc(N3CCS(=O)(=O)c4ccccc4C3)cc(NCC(C)(C)CN)c2c1` [Example 9-14, N-[2-(1,1-Dioxido-2,3-dihydro-1,4-benzothiazepin-4(5H)-yl)-6-methylquinolin-4-yl]-2,2-dimethylpropane-1,3-diamine], 0.025 µM; that for `Cc1ccc2nc(N3CCS(=O)(=O)c4ccccc4C3)cc(N3CC(N)CC3=O)c2c1` (centres unmarked) [Example 73, 4-Amino-1-[2-(1,1-dioxido-2,3-dihydro-1,4-benzothiazepin-4(5H)-yl)-6-methylquinolin-4-yl]pyrrolidin-2-one], 6.98 µM. On the same count and under the same terms, with `Cc1ccc2nc(N3CCS(=O)(=O)c4ccccc4C3)cc(NCC(C)N)c2c1` (centres unmarked) [Example 5-5, N˜1˜-[2-(1,1-Dioxido-2,3-dihydro-1,4-benzothiazepin-4(5H)-yl)-6-methylquinolin-4-yl]propane-1,2-diamine] the figure was 0.014 µM; with `Cc1ccc2nc(N3CCS(=O)(=O)c4ccccc4C3)cc(NCCSCCN)c2c1` [Example 8-7, N-{2-[(2-Aminoethyl)sulfanyl]ethyl}-2-(1,1-dioxido-2,3-dihydro-1,4-benzothiazepin-4(5H)-yl)-6-methylquinolin-4-amine], 0.322 µM; with `Cc1ccc2nc(N3CC[S+]([O-])c4ccccc4C3)nc(NCC(F)(F)CN)c2c1` (centres unmarked) [Example 56-2, 2,2-Difluoro-N-[6-methyl-2-(1-oxido-2,3-dihydro-1,4-benzothiazepin-4(5H)-yl)quinazolin-4-yl]propane-1,3-diamine], 0.023 µM. As for `Cc1ccc2nc(N3CC[S+]([O-])c4ccccc4C3)cc(NCC(F)(F)CN)c2c1` (centres unmarked) [Example 18-5, N-[2-(1-Oxido-2,3-dihydro-1,4-benzothiazepin-4(5H)-yl)-6-methylquinolin-4-yl]-2,2-difluoropropane-1,3-diamine], the EC50 under setting [1] was found to be 0.057 µM. Molecule `Cc1ccc2nc(N3CC[S+]([O-])c4ccccc4C3)nc(NCC3(CN)COC3)c2c1` (single isomer, unassigned; (-)) [Example 62-2] returned an EC50 of 0.0017 µM. Molecule `COC(C)(C)C(=O)Nc1cc(N2CCS(=O)(=O)c3ccccc3C2)nc2ccc(C)cc12` [Example 41, N-[2-(1,1-Dioxido-2,3-dihydro-1,4-benzothiazepin-4(5H)-yl)-6-methylquinolin-4-yl]-2-methoxy-2-methylpropanamide] came in with an EC50 under setting [1] of 2.63 µM. Same read-out and setting: the result for `O=S1(=O)CCN(c2cc(NC3CNC3)c3cc(Cl)ccc3n2)Cc2ccccc21` [Example 22, N-(Azetidin-3-yl)-6-chloro-2-(1,1-dioxido-2,3-dihydro-1,4-benzothiazepin-4(5H)-yl)quinolin-4-amine] reads 0.036 µM; that for `Cc1ccc2nc(N3CCS(=O)(=O)c4ccccc4C3)cc(NC(=O)[C@H](C)N)c2c1` [Example 40-3, N-[2-(1,1-Dioxido-2,3-dihydro-1,4-benzothiazepin-4(5H)-yl)-6-methylquinolin-4-yl]alaninamide], 0.917 µM.

Molecule `Cc1ccc2nc(N3CC[S+]([O-])c4ccccc4C3)cc(NCC(O)CO)c2c1` (centres unmarked) [Example 32-4, 3-{[6-Methyl-2-(1-oxido-2,3-dihydro-1,4-benzothiazepin-4(5H)-yl)quinolin-4-yl]amino}propane-1,2-diol] yielded an EC50 under setting [1] of 0.272 µM.

Molecule `Cc1ccc2nc(N3CCC(F)(F)c4ccccc4C3)cc(N3CCCNCC3)c2c1` [Example 111-2, 2-[4-(1,4-Diazepan-1-yl)-6-methylquinolin-2-yl]-5,5-difluoro-2,3,4,5-tetrahydro-1H-2-benzazepine] registered an EC50 under setting [1] of 1.34 µM. Still for that read-out and setting: with `Cc1ccc2nc(N3CCS(=O)(=O)c4ccccc4C3)cc(NC[C@@H](O)CO)c2c1` [Example 3-11, (2R)-3-{[2-(1,1-Dioxido-2,3-dihydro-1,4-benzothiazepin-4(5H)-yl)-6-methylquinolin-4-yl]amino}propane-1,2-diol] the figure was 0.054 µM; with `Cc1ccc2nc(N3CCS(=O)(=O)c4ccccc4C3)cc(N3C(=O)NCC34COC4)c2c1` [Example 86, 5-[2-(1,1-Dioxido-2,3-dihydro-1,4-benzothiazepin-4(5H)-yl)-6-methylquinolin-4-yl]-2-oxa-5,7-diazaspiro[3.4]octan-6-one], 2.22 µM.

`Cc1ccc2nc(N3CCS(=O)(=O)c4ccccc4C3)cc(NCCO)c2c1F` [Example 9-22, 2-{[2-(1,1-Dioxido-2,3-dihydro-1,4-benzothiazepin-4(5H)-yl)-5-fluoro-6-methylquinolin-4-yl]amino}ethanol] registered an EC50 under setting [1] of 0.872 µM. Same read-out and setting: with `Cc1ccc2nc(N3CCS(=O)(=O)c4ccccc4C3)cc(NCC(O)CN)c2c1` (centres unmarked) [Example 9-7, 1-Amino-3-{[2-(1,1-dioxido-2,3-dihydro-1,4-benzothiazepin-4(5H)-yl)-6-methylquinolin-4-yl]amino}propan-2-ol] the figure was 0.002 µM; with `N[C@@H]1CN(c2cc(N3CCS(=O)(=O)c4ccccc4C3)nc3ccc(Cl)cc23)C[C@H]1O` (relative stereo) [Example 19-6, trans-4-Amino-1-[6-chloro-2-(1,1-dioxido-2,3-dihydro-1,4-benzothiazepin-4(5 H)-yl)quinolin-4-yl]pyrrolidin-3-ol], 0.054 µM; with `NCC1(CNc2nc(N3CCS(=O)(=O)c4ccccc4C3)nc3ccc(CO)cc23)COC1` [Example 109-2, [4-({[3-(Aminomethyl)oxetan-3-yl]methyl}amino)-2-(1,1-dioxido-2,3-dihydro-1,4-benzothiazepin-4(5H)-yl)quinazolin-6-yl]methanol], 0.0015 µM.

`NC1(CNc2cc(N3CC[S+]([O-])c4ccccc4C3)nc3ccc(Cl)cc23)COC1` (centres unmarked) [Example 18-4, N-[(3-Aminooxetan-3-yl)methyl]-6-chloro-2-(1-oxido-2,3-dihydro-1,4-benzothiazepin-4 (5H)-yl)quinolin-4-amine] registered an EC50 under setting [1] of 0.061 µM. Under setting [1], `Cc1ccc2nc(N3CCS(=O)(=O)c4ccccc4C3)cc(NCCNCC(F)F)c2c1` [Example 5-11, N-(2,2-Difluoroethyl)-N′-[2-(1,1-dioxido-2,3-dihydro-1,4-benzothiazepin-4(5H)-yl)-6-methylquinolin-4-yl]ethane-1,2-diamine] displayed an EC50 of 0.526 µM. Still for that read-out and setting: with `Nc1cc(N2CCS(=O)(=O)c3cc(OCCCO)ccc3C2)nc2ccccc12` [Example 34, 3-{[4-(4-Aminoquinolin-2-yl)-1,1-dioxido-2,3,4,5-tetrahydro-1,4-benzothiazepin-8-yl]oxy}propan-1-ol] the figure was 2.09 µM; with `Cc1ccc2nc(N3CCS(=O)(=O)c4ccccc4C3)cc(NCCNCCO)c2c1` [Example 3-42, 2-[(2-{[2-(1,1-Dioxido-2,3-dihydro-1,4-benzothiazepin-4(5H)-yl)-6-methylquinolin-4-yl]amino}ethyl)amino]ethanol], 0.007 µM. Still for that read-out and setting: the result for `Cc1ccc2nc(N3CCC(F)(F)c4ccccc4C3)cc(NCCCCN)c2c1` [Example 111-10, N-[2-(5,5-Difluoro-1,3,4,5-tetrahydro-2H-2-benzazepin-2-yl)-6-methylquinolin-4-yl]butane-1,4-diamine] reads 0.107 µM.
